Literature values as cited in patent publication US7365075B2, “Aryl sulfonamide compounds and uses related thereto” (Amgen Inc., priority 2003, dated 2008).

In the case of `CC1(C)[C@@H](OC(=O)CCC(=O)O)CC[C@]2(C)[C@H]3C(=O)C=C4[C@@H]5C[C@@](C)(C(=O)O)CC[C@]5(C)CC[C@@]4(C)[C@]3(C)CC[C@@H]12` [carbenoxolone], the “reduction of the intraocular pressure” value (normal patients) is listed as 20%, the “detrimental effects of glucocorticoids on bone nodule formation” value (bone nodule formation) is listed as “lessened” and the hepatic insulin sensitivity (humans) is listed as “improved hepatic insulin sensitivity”.
